This note sets out measurements from EPA's ToxValDB 9.5 (doi:10.2903/j.efsa.2017.4700).

One data set deals with Apis mellifera. As to conditions: acute, mortality.
For the next data set, the system named is Pimephales promelas. The note with it: chronic/long-term; other.
For another data set, the system named is Canidae. The note with it: Dog Other, hematological.
Another data set has as its system Daphnia magna. The note with it: chronic/long-term; duration: 21 days; growth.
The subject of the next data set is Tagia sp. As to conditions: chronic/long-term; reproduction.
In another data set the test system is Oncorhynchus mykiss. The note with it: acute; mortality.
For data set [1] the following is noted: reproduction developmental; clinical signs.
The next data set relates to Typhlodromus pyri. Put plainly: LR50; higher = less toxic. As to conditions: not reported; mortality.

In brackets after ≈: the same amount, converted by molar mass. Several values for one entry are separate records, joined by “and”; a condition that tells them apart may be missing. Equal values may be shown once.

By NOAEL is commonly meant the highest tested level that showed no adverse finding. As usually defined, the LC50 is the concentration lethal to half of the exposed cells or organisms. `CN(C)C(=S)SSC(=S)N(C)C` [Bis(dimethylaminothiocarbonyl) disulfide]: the LD50 with Apis mellifera (dermal) is above 100 µg/piece; in the data set on Apis mellifera (oral, unspecified), above 107 µg/piece; in the data set on Colinus virginianus (acute, oral, mortality) it was 930 mg/kg-day; in the data set with Rattus norvegicus (acute, oral, mortality), 1800 mg/kg-day. Also, the NOEC stood at 1.1 µg/L with Pimephales promelas, 20 µg/L with Daphnia magna, 8.45 mg/kg in the data set on Tagia sp. and 37.5 mg/kg-day in the data set on Colinus virginianus (reproduction developmental). The NOAEL is 0.84 mg/kg-day in the data set on Canidae (chronic, duration: 1 years); 2 mg/kg-day in the data set on Canidae (subchronic, duration: 90 days); 1.6 mg/kg-day in data set [1]; 1.6 mg/kg-day in the data set with Rattus norvegicus (chronic); 1.5 mg/kg-day in the data set on Rattus norvegicus (chronic, duration: 2 years, body weight); < 7.5 mg/kg-day and 3 mg/kg-day in the data set on Rattus norvegicus (reproduction developmental, body weight). Further, the LC50 with Oncorhynchus mykiss was determined as 0.171 mg/L (≈ 0.711 µM). Further, the LR50 with Typhlodromus pyri came out at 511 g/ha.
